Experimental data reported in US20160145242A1, “PHENYLIMIDAZOLE DERIVATIVE, AND THERAPEUTIC MEDICINE OR PREVENTIVE MEDICINE FOR INFLAMMATORY DISEASE, ETC” (NIPPON SODA CO., LTD., priority 2013, published 2016).

System: mouse model of retinal light disorders
Assay: Retinal light disorder model test (ONL thickness)
Format: in vivo
Conditions: BALB/cCr male mouse, 30 mg/kg oral 30 minutes before 2 hours white light, eyes taken after 4 days
Procedure: (Retinal Light Disorder Model Test)
The usefulness (improvement rate with respect to retinal light disorders) of the compound of the invention was evaluated using a mouse model of retinal light disorders, generally used as a model of retinal light disorders, (Investigative Ophthalmology & Visual Science, 2002; vol. 43; pp. 1162 to 1167). Here, the improvement rate with respect to the retinal light disorders was calculated based on the thickness of an outer nuclear layer (hereinafter, referred to as “ONL”), which is strongly interfered especially by light application among a retinal cell layers, in a tissue specimen of a perpendicular surface of an eyeball.
Moreover, in the present test, the ONL of a light application group to which only a base was administered was degraded to 30% to 50% of a normal light group.
A test compound was dissolved or suspended in a solvent (1% (w/v) methyl cellulose aqueous solution) and then an administration liquid was prepared so that the test compound to be 30 mg/kg body weight. The dose was set to 10 ml/kg body weight.
A 5-week-old BALB/cCr-based male mouse (weight of approximately 20 g) was bred in a dark place for 48 hours. Subsequently, the test compound administration liquid was orally administered (30 mg/kg). After 30 minutes, […] of white light was continuously applied to the mouse for 2 hours. Next, the mouse was bred in a breeding room with 50 lux of light for 4 days.
An anesthetic (secobarbital sodium) was intraperitoneally administered to anesthetize the mouse and then the mouse was exsanguinated to die. The top portion of the right eyeball was marked with a thread and the eyeball was extracted. […]
The ONL thickness in the tissue specimen was measured for every 200 μm between the optic nerve papilla to where upwardly spaced by 1 mm from the optic nerve papilla using Lumina Vision. The area (AUC) from the optic nerve papilla to where upwardly spaced by 1 mm from the optic papilla in the graph was calculated as an ONL area. […]

SMILES	ONL thickness improvement rate
CC(=O)NC1CCN(c2ccc(N)c(-n3ccnc3)c2)C1 (centres unmarked) [Compound 3-1, 3-acetylamino-1-(4-amino-3-imidazole-1-yl-phenyl)pyrrolidine]	87.2%
CC(=O)N1CCN(c2ccc([N+](=O)[O-])c(-n3ccnc3)c2)CC1 [2-imidazole-1-yl-4-(acetylpiperazine-1-yl)nitrobenzene, reference compound]	29.2%
